What all share (assay): Bliss interaction score (quartile over a dose matrix) (fitness difference); higher = more antagonism (negative = synergy)
One test has as its system S. aureus Newman. In a few lines: (§1)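 Growth was read as OD595 when cultures entered stationary phase, and each value was divided by the plate's robust no-drug mean and capped at 1. This normalised ratio is the fitness value, and fitness for each single drug came from the combination data. The Bliss score subtracts the expected fitness, taken as the product, from the observed fitness and is given as quartiles across technical, biological and donor/recipient replicates.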

In the next test the test system is S. aureus DSM 20231. In a few lines: as §1
The next test deals with S. pneumoniae D39V. An outline of the steps: as §1
The next test concerns B. subtilis 168. An outline of the steps:
as §1

In the supplement of paper PMC10627819 one finds Bliss interaction score data, which are given here for 13 molecules.
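Further: first quartile when negative (synergy) and third quartile when positive (antagonism).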

As to `CC1(C)S[C@@H]2[C@H](NC(=O)[C@H](N)c3ccc(O)cc3)C(=O)N2[C@H]1C(=O)O` [Amoxicillin] + CN[C@H](CC(C)C)C(=O)N[C@H]1C(=O)N[C@@H](CC(N)=O)C(=O)N[C@H]2C(=O)N[C@H]3C(=O)N[C@H](C(=O)N[C@H](C(=O)O)c4cc(O)cc(O)c4-c4cc3ccc4O)[C@H](O[C@H]3C[C@](C)(N)[C@@H](O)[C@H](C)O3)c3ccc(c(Cl)c3)Oc3cc2cc(c3O[C@@H]2O[C@H](CO)[C@@H](O)[C@H](O)[C@H]2O[C@H]2C[C@](C)(NCc3ccc(-c4ccc(Cl)cc4)cc3)[C@@H](O)[C@H](C)O2)Oc2ccc(cc2Cl)[C@H]1O [Oritavancin], the Bliss interaction score with S. aureus Newman is 0.131; in the test on S. aureus DSM 20231, 0.0659; in the test with S. pneumoniae D39V it was -0.0312; in the test on B. subtilis 168, 0.0439.
The like results for `Cn1nnc(-c2ccc(-c3ccc(N4C[C@H](CO)OC4=O)cc3F)cn2)n1` [Tedizolid] + Oc1cc(Cl)ccc1Oc1ccc(Cl)cc1Cl [Triclosan] were, in that order, 0.037, -0.153, -0.075 and 0.0378.
For `CCCCCCCCCC(=O)N[C@@H](Cc1c[nH]c2ccccc12)C(=O)N[C@H](CC(N)=O)C(=O)N[C@@H](CC(=O)O)C(=O)N[C@@H]1C(=O)NCC(=O)N[C@@H](CCCN)C(=O)N[C@@H](CC(=O)O)C(=O)N[C@H](C)C(=O)N[C@@H](CC(=O)O)C(=O)NCC(=O)N[C@H](CO)C(=O)N[C@@H]([C@H](C)CC(=O)O)C(=O)N[C@@H](CC(=O)c2ccccc2N)C(=O)O[C@@H]1C` [Daptomycin] + CC[C@H]1OC(=O)[C@H](C)[C@@H](O[C@H]2C[C@@](C)(OC)[C@@H](O)[C@H](C)O2)[C@H](C)[C@@H](O[C@@H]2O[C@H](C)C[C@H](N(C)C)[C@H]2O)[C@](C)(O)C[C@@H](C)C(=O)[C@H](C)[C@@H](O)[C@]1(C)O [Erythromycin], the Bliss interaction score was -0.034 in the test on S. aureus Newman, 0.0418 with S. aureus DSM 20231, -0.0815 in the test on S. pneumoniae D39V and 0.102 in the test with B. subtilis 168.
Take `CN(C)C(=O)C(CCN1CCC(O)(c2ccc(Cl)cc2)CC1)(c1ccccc1)c1ccccc1` [Loperamide] + CC1(C)S[C@@H]2[C@H](NC(=O)Cc3ccccc3)C(=O)N2[C@H]1C(=O)O [PenicillinG]: the Bliss interaction score with S. aureus Newman is -0.068; with S. aureus DSM 20231, -0.14; in the test with S. pneumoniae D39V, -0.249; in the test on B. subtilis 168, 0.0464.
Taken in the same sequence, the figures for `CCN(CC)CCOC(=O)c1ccc(N)cc1` [Procaine] + CC[C@H]1OC(=O)[C@H](C)C(=O)[C@H](C)[C@@H](O[C@@H]2O[C@H](C)C[C@H](N(C)C)[C@H]2O)[C@](C)(OC)C[C@@H](C)C(=O)[C@H](C)[C@H]2N(CCCCn3cnc(-c4cccnc4)c3)C(=O)O[C@]12C [Telithromycin] were 0.0289, -0.0287, 0.0708 and -0.0224.
On to `Cn1nnc(-c2ccc(-c3ccc(N4C[C@H](CO)OC4=O)cc3F)cn2)n1` [Tedizolid] + CCCCCCCCCC(=O)N[C@@H]1[C@H]([C@@H]([C@H](O[C@H]1OC2=C3C=C4C=C2OC5=C(C=C(C=C5)[C@H]([C@H]6C(=O)N[C@@H](C7=C(C(=CC(=C7)O)OC8[C@H]([C@H]([C@@H]([C@H](O8)CO)O)O)O)C9=C(C=CC(=C9)[C@H](C(=O)N6)NC(=O)[C@@H]4NC(=O)[C@@H]1C2=CC(=CC(=C2)OC2=C(C=CC(=C2)[C@H](C(=O)N[C@H](CC2=CC(=C(O3)C=C2)Cl)C(=O)N1)N)O)O)O)C(=O)O)O[C@H]1[C@@H]([C@H]([C@@H]([C@H](O1)CO)O)O)NC(=O)C)Cl)CO)O)O [Teicoplanin], for which the Bliss interaction score with S. aureus Newman (main component drawn) was 0.0811; in the test on S. aureus DSM 20231 (main component drawn), -0.083; in the test with S. pneumoniae D39V (main component drawn), 0.295; in the test on B. subtilis 168 (main component drawn), 0.065.
Regarding `C[C@H]1COc2c(N3CCN(C)CC3)c(F)cc3c(=O)c(C(=O)O)cn1c23` [Levofloxacin] + CO[C@@]12[C@H](COC(N)=O)C3=C(C(=O)C(C)=C(N)C3=O)N1C[C@@H]1N[C@@H]12 [MitomycinC], the Bliss interaction score is 0.0429 with S. aureus Newman, 0.0462 in the test on S. aureus DSM 20231, -0.0941 in the test on S. pneumoniae D39V and 0.0422 in the test with B. subtilis 168.
In the case of `CN(C)C(=O)C(CCN1CCC(O)(c2ccc(Cl)cc2)CC1)(c1ccccc1)c1ccccc1` [Loperamide] + CO[C@@]12[C@H](COC(N)=O)C3=C(C(=O)C(C)=C(N)C3=O)N1C[C@@H]1N[C@@H]12 [MitomycinC], the Bliss interaction score in the test with S. aureus Newman is -0.031; in the test with S. aureus DSM 20231, 0.101; in the test on S. pneumoniae D39V, 0.105; with B. subtilis 168 it was 0.0277.
Taken in the same sequence, the figures for `CC1(C)S[C@@H]2[C@H](NC(=O)[C@H](N)c3ccc(O)cc3)C(=O)N2[C@H]1C(=O)O` [Amoxicillin] + CC(=O)O[C@H]1C[C@@]2(C)[C@@H](C[C@@H](O)[C@H]3[C@@]4(C)CC[C@@H](O)[C@@H](C)[C@@H]4CC[C@@]32C)/C1=C(\CCC=C(C)C)C(=O)O [Fusidic acid] were -0.0375, 0.0361, 0.143 and 0.0608.
The like results for `CC1(C)S[C@@H]2[C@H](NC(=O)[C@H](N)c3ccc(O)cc3)C(=O)N2[C@H]1C(=O)O` [Amoxicillin] + Oc1cc(Cl)ccc1Oc1ccc(Cl)cc1Cl [Triclosan] were, in that order, 0.0346, 0.028, -0.0734 and -0.0443.
The like results for `C[C@H]1COc2c(N3CCN(C)CC3)c(F)cc3c(=O)c(C(=O)O)cn1c23` [Levofloxacin] + CC[C@H]1OC(=O)[C@H](C)C(=O)[C@H](C)[C@@H](O[C@@H]2O[C@H](C)C[C@H](N(C)C)[C@H]2O)[C@](C)(OC)C[C@@H](C)C(=O)[C@H](C)[C@H]2N(CCCCn3cnc(-c4cccnc4)c3)C(=O)O[C@]12C [Telithromycin] were, in that order, 0.0408, 0.0361, 0.0737 and 0.0654.
`CCCCCCCCCC(=O)N[C@@H](Cc1c[nH]c2ccccc12)C(=O)N[C@H](CC(N)=O)C(=O)N[C@@H](CC(=O)O)C(=O)N[C@@H]1C(=O)NCC(=O)N[C@@H](CCCN)C(=O)N[C@@H](CC(=O)O)C(=O)N[C@H](C)C(=O)N[C@@H](CC(=O)O)C(=O)NCC(=O)N[C@H](CO)C(=O)N[C@@H]([C@H](C)CC(=O)O)C(=O)N[C@@H](CC(=O)c2ccccc2N)C(=O)O[C@@H]1C` [Daptomycin] + CC(=O)O[C@H]1C[C@@]2(C)[C@@H](C[C@@H](O)[C@H]3[C@@]4(C)CC[C@@H](O)[C@@H](C)[C@@H]4CC[C@@]32C)/C1=C(\CCC=C(C)C)C(=O)O [Fusidic acid]: the Bliss interaction score in the test on S. aureus Newman was -0.0422; in the test on S. aureus DSM 20231, 0.0265; in the test with S. pneumoniae D39V, -0.109; in the test with B. subtilis 168, 0.0625.
As for `CC1(C)S[C@@H]2[C@H](NC(=O)[C@H](N)c3ccc(O)cc3)C(=O)N2[C@H]1C(=O)O` [Amoxicillin] + N[C@@H]1CONC1=O [CycloserineD], the Bliss interaction score in the test with S. aureus Newman is 0.035; with S. aureus DSM 20231, -0.0593; in the test with S. pneumoniae D39V it was -0.108; in the test on B. subtilis 168, 0.187.
